The values that follow come from US7074824B2, “Pharmaceutical compositions containing beta-lapachone, or derivatives or analogs thereof, and methods of using same” (Arqule, Inc., priority 2001, dated 2006).

Values after ≈ are worked out from the molar mass of the structure shown. Where two headings read alike, the source gives them in different places.

Data set [1] relates to six human cancer cells lines. Kind of data set: MTS growth inhibition assay, summary over all lines. It is filed as cell-based. The settings on record: all six tumor cell lines; tested up to 20 μM. The protocol:
(§1) A2780 and A2780/CP (ovarian); MCF-7 (breast); HT-29 (colon); BxPC-3 (pancreas); and A549 (lung). The human tumor cell lines (purchased from ATCC, Rockville, Md.) were cultured at 37° C. (5% CO2) in RPMI medium (RPMI; Nova Tech, Grand Island, N.Y.) containing 10% fetal bovine serum (FBS, Nova Tech). Aliquots of cells were seeded into each well of 96-well microtiter plates at a final concentration of 10^4 cells/well and incubated for 24 h prior to exposure to test compounds. […] The MTS assay is a colorimetric assay based upon the ability of viable cells to convert MTS, a novel tetrazolium compound and electron-coupling reagent, to a colored formazan product that is soluble in cell culture medium. The cell concentration is then determined by measuring the absorbance of the formazan product at 490 nm. Growth inhibition, expressed as IC50, is calculated relative to vehicle-treated control cells.
In general terms: Formazan colour is commonly taken as a measure of viable cells.

A short description of data set [2]: Solubility in water and in 40% (w/v) HPBCD solution by UV absorbance. It counts as physicochemical. Particulars: for Solubility in HPBCD Solution: 40% (w/v) HPBCD; for Solubility in HPBCD Solution / Solubility in Water: room temperature, saturated solution; for Solubility Enhancement: 40% HPBCD versus water. The procedure: To determine solubilities, test compounds were first dissolved in ethanol to prepare standard solutions with concentrations in the range 2.5–10 mg/ml, then were diluted with to 10 μg/ml with water. UV scans were obtained of the 10 μg/ml standard solutions, and the wavelength of maximum absorbance and the absorbance at the maximum absorbance wavelength were determined. For each test compound 50 μl aliquots of water and of 40% HPBCD were added to individual Eppendorf tubes containing approximately 1 mg of compound each. The tubes were heated in a 30° C. waterbath, vortexed, then centrifuged at 15,000 rpm for 5 min. This step was repeated, then the tubes were cooled to room temperature for 1 hour, then were centrifuged again. The supernatant from each tube was diluted with water into the appropriate absorbance range, and the UV absorbance was measured at the compound's absorbance maximum wavelength. The concentrations of these saturated solutions were then calculated by ratio to the 10 μg/ml ethanolic standard solutions.

The next data set deals with A549. Kind of data set: MTS growth inhibition assay. It counts as cell-based, human. Particulars: A549 lung, read-out: Growth inhibitory activity (50% effective concentration, IC50). The procedure:
as §1, with “(5% CO2) in RPMI medium (RPMI;” left out

Another data set deals with A2780. Kind of data set: MTS growth inhibition assay. It is filed as cell-based, human. The settings on record: A2780 (sensitive) ovarian, read-out: Growth inhibitory activity (50% effective concentration, IC50). The protocol:
as §1, with “(5% CO2) in RPMI medium (RPMI;” left out

Another data set has as its system BxPC-3. Kind of data set: MTS growth inhibition assay. It counts as cell-based, human. The settings on record: BxPC-3 pancreas, read-out: Growth inhibitory activity (50% effective concentration, IC50). The procedure:
as §1, with “(5% CO2) in RPMI medium (RPMI;” left out

In a further data set the test system is A2780CP. Kind of data set: MTS growth inhibition assay. The settings on record: A2780CP (resistant) ovarian, read-out: Growth inhibitory activity (50% effective concentration, IC50). It counts as cell-based, human. The procedure:
as §1, with “(5% CO2) in RPMI medium (RPMI;” left out

The next data set has as its system MCF-7. Kind of data set: MTS growth inhibition assay. It counts as cell-based, human. The settings on record: MCF-7 breast, read-out: Growth inhibitory activity (50% effective concentration, IC50). The procedure: as §1, with “(5% CO2) in RPMI medium (RPMI;” left out
The subject of a further data set is HT-29. Kind of data set: MTS growth inhibition assay. Particulars: HT-29 colon, read-out: Growth inhibitory activity (50% effective concentration, IC50). It counts as cell-based, human. The protocol:
as §1, with “(5% CO2) in RPMI medium (RPMI;” left out

Data set [3] concerns Human ovarian cancer cells (36M2). Kind of data set: Human ovarian cancer xenograft model, β-lapachone in Lipiodol and Taxol®. Particulars: i.p., 10 cycles. It counts as in vivo, athymic female nude mice. The protocol: Human ovarian cancer cells (36M2, originally isolated from malignant ascites) were inoculated by i.p. injection into athymic female nude mice 24 h after irradiation. In this model, metastatic foci form approximately 1 week after inoculation, and tumor nodules of the peritoneum and malignant ascites develop in 4–5 weeks. Ten days after tumor inoculation (10×10^6 cells), treatment regimens were initiated. The control group was treated with vehicle alone. In each typical treatment cycle, the β-lapachone alone group was treated with 25–50 mg/kg i.p. of β-lapachone in Lipiodol solution and the Taxol® alone group was treated at 1 mg/kg i.p. (Taxol® formulation diluted in Lipiodol), both followed 24 h later by i.p. injection of vehicle. In the combination group, nude mice were treated with β-lapachone at 25–50 mg/kg, followed 24 h later by Taxol® at 1 mg/kg. All groups were treated for 10 cycles, with a 1-day break between each cycle. […] Host toxicity was evaluated by general appearance and body weight.
For orientation: A xenograft is tissue or cells of one species grown in another, often human tumour cells in immunodeficient mice.

The test system of the next data set is human carcinoma cells. Kind of data set: Colony formation assay of β-lapachone combined with Taxol®. It counts as cell-based. The settings on record: 4 h exposure, colonies scored after 10–20 days; ovarian, breast, prostate, melanoma, lung and pancreatic cell lines, FIG. 4. The protocol:
In these studies, exponentially growing cells were seeded at 1,000 cells per well in six-well plates and allowed to attach for 48 h. β-lapachone and/or Taxol®, solubilized in DMSO, were added to the wells. Control wells were treated with equivalent volumes of DMSO. After 4 h cells were rinsed and fresh medium was added. Cultures were observed daily for 10–20 days and then were fixed and stained. Colonies of greater than 30 cells were scored as survivors.

The subject of the next data set is A2780DDP. The settings on record: stated as typical value, read-out: IC50 concentration; cited from earlier work.
Where [4] appears, read: Exp 1, 4 h treatment + 24 h drug-free.
Where [5] appears, read: Exp 2, 4 h treatment + 24 h drug-free.
Setting [6] is: Exp 3, 4 h treatment + 24 h drug-free.

Regarding `CC1(C)CC(O)C2=C(O1)c1ccccc1C(=O)C2=O` (stereo not drawn) [CO-503, 4-hydroxy β-lapachone], in data set [1], the “growth inhibitory activity, verbal summary” value is reported as “significantly less active across all cell lines”. Moreover, the “Solubility in HPBCD Solution” value in [2] is 3100 µg/mL (≈ 12 mM). Also, the “Solubility Enhancement” value in data set [2] was 8.0 −Fold. The “Solubility in Water” value in data set [2] came to 381 µg/mL (≈ 1.48 mM). The IC50 with A549 (Exp 1) is 14.3 µM; with A549 (Exp 2), 7.63 µM; in the data set with A549 (Exp 3), 9.77 µM; with A549 (Mean ± SE of 3 experiments) it was 10.6 ± 1.98 µM; in the data set with A2780 (setting [4]), 2.35 µM; with A2780 (setting [5]), 5.29 µM. The IC50 was 4.86 µM with A2780 (setting [6]); 4.16 ± 0.92 µM with A2780 (Mean ± SE of 3 experiments); greater than 20 µM in the data set on BxPC-3 (Exp 1); greater than 20 µM with BxPC-3 (Exp 2); greater than 20 µM in the data set on BxPC-3 (Exp 3); greater than 20 µM in the data set on BxPC-3 (Mean ± SE of 3 experiments). The IC50 in the data set with A2780CP (Exp 1) amounted to 7.42 µM; in the data set on A2780CP (Exp 2), 9.38 µM; in the data set on A2780CP (Exp 3), 14.8 µM; in the data set with A2780CP (Mean ± SE of 3 experiments), 10.5 ± 2.2 µM; with MCF-7 (Exp 1) it was 18.8 µM; in the data set with MCF-7 (Exp 2), 19.4 µM. The IC50 with MCF-7 (Exp 3) came to 19.3 µM; in the data set with MCF-7 (Mean ± SE of 3 experiments) it was 19.2 ± 0.17 µM; in the data set on HT-29 (Exp 1), 13.2 µM; in the data set on HT-29 (Exp 2) it was 11 µM; in the data set with HT-29 (Exp 3), 12.1 µM; with HT-29 (Mean ± SE of 3 experiments), 12.1 ± 0.63 µM.

In the case of `CC(=O)OC1CC(C)(C)OC2=C1C(=O)C(=O)c1ccccc12` (stereo not drawn) [CO-504, 4-acetoxy β-lapachone], the “growth inhibitory activity, verbal summary” value in [1] is on record as “very similar to CO-501 in inhibitory activity”. Further, the “Solubility in HPBCD Solution” value in data set [2] was determined as 2100 µg/mL (≈ 6.99 mM). Also, the “Solubility Enhancement” value in data set [2] is recorded as 7.4 −Fold. Further, the “Solubility in Water” value in data set [2] stood at 284 µg/mL (≈ 0.946 mM). Also, the IC50 was found to be 19.3 µM in the data set on A549 (Exp 1); 6.87 µM in the data set on A549 (Exp 2); 3.75 µM with A549 (Exp 3); 9.97 ± 4.74 µM in the data set with A549 (Mean ± SE of 3 experiments); 1.83 µM in the data set on A2780 (setting [4]); 1.6 µM in the data set on A2780 (setting [5]). The IC50 with A2780 (setting [6]) turned out to be 1.19 µM; with A2780 (Mean ± SE of 3 experiments), 1.54 ± 0.19 µM; with BxPC-3 (Exp 1), 10.5 µM; in the data set with BxPC-3 (Exp 2), 13.5 µM; in the data set with BxPC-3 (Exp 3), 2.32 µM; in the data set with BxPC-3 (Mean ± SE of 3 experiments), 8.74 ± 3.33 µM. Besides, the IC50 in the data set with A2780CP (Exp 1) was found to be 0.678 µM; in the data set on A2780CP (Exp 2), 4 µM; in the data set on A2780CP (Exp 3) it was 2.56 µM; in the data set with A2780CP (Mean ± SE of 3 experiments) it was 2.41 ± 0.96 µM; in the data set with MCF-7 (Exp 1), 2.59 µM; in the data set on MCF-7 (Exp 2), 4.78 µM. In addition, the IC50 in the data set with MCF-7 (Exp 3) is 4.28 µM; in the data set with MCF-7 (Mean ± SE of 3 experiments), 3.88 ± 0.67 µM; in the data set with HT-29 (Exp 1), 14.1 µM; in the data set on HT-29 (Exp 2) it was 6.67 µM; with HT-29 (Exp 3) it was 3.98 µM; with HT-29 (Mean ± SE of 3 experiments), 8.25 ± 3.03 µM.

Regarding `CC(=O)O[C@H]1C(=O)[C@@]2(C)[C@H]([C@H](OC(=O)c3ccccc3)[C@]3(O)C[C@H](OC(=O)[C@H](O)[C@@H](NC(=O)c4ccccc4)c4ccccc4)C(C)=C1C3(C)C)[C@]1(OC(C)=O)CO[C@@H]1C[C@@H]2O` [Taxol®, paclitaxel, reference compound], the “decrease in tumor number versus control” value in [3] (assessed day 50, β-lapachone 25–50 mg/kg in Lipiodol, Taxol® 1 mg/kg) is recorded as roughly 60%. Also, the “size of the tumor nodules and amount of ascites” value in data set [3] (laparotomy at day 50) was “considerable reduction in the size of the tumor nodules and the amount of ascites”. Besides, in the data set with human carcinoma cells, the “inhibition of cancer cell survival (colony formation)” value is listed as “much less effective”.

For `N.N.[Cl][Pt][Cl]` [cisplatin], in the data set on A2780DDP, the IC50 is greater than 100 µM.
